# From PubChem BioAssay (NCI)
#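 How tested: cells in 96-well plates exposed to compound for 48 hours at five concentrations. GI50 is the concentration that inhibits growth by half. Definition used: TGI = concentration required for complete inhibition of growth.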
# Columns and labels:
# Assay in all cases: NCI-60 cell line screen, 48 h
# 786-0 renal = system: 786-0 renal
# A549 NSCLC = system: A549 NSCLC
# ACHN renal = system: ACHN renal
# BT-549 breast = system: BT-549 breast
# CAKI-1 renal = system: CAKI-1 renal
# CCRF-CEM leukemia = system: CCRF-CEM leukemia
# COLO 205 colon = system: COLO 205 colon
# DU-145 prostate = system: DU-145 prostate
# EKVX NSCLC = system: EKVX NSCLC
# HCC-2998 colon = system: HCC-2998 colon
# HCT-116 colon = system: HCT-116 colon
# HCT-15 colon = system: HCT-15 colon
# HL-60(TB) leukemia = system: HL-60(TB) leukemia
# HOP-62 NSCLC = system: HOP-62 NSCLC
# HOP-92 NSCLC = system: HOP-92 NSCLC
# HS 578T breast = system: HS 578T breast
# HT29 colon = system: HT29 colon
# IGROV1 ovarian = system: IGROV1 ovarian
# K-562 leukemia = system: K-562 leukemia
# KM12 colon = system: KM12 colon
# LOX IMVI melanoma = system: LOX IMVI melanoma
# M14 melanoma = system: M14 melanoma
# MALME-3M melanoma = system: MALME-3M melanoma
# MCF7 breast = system: MCF7 breast
# MDA-MB-231 breast = system: MDA-MB-231 breast
# MDA-MB-435 = system: MDA-MB-435
# MOLT-4 leukemia = system: MOLT-4 leukemia
# NCI-H226 lung = system: NCI-H226 lung
# NCI-H23 lung = system: NCI-H23 lung
# NCI-H460 lung = system: NCI-H460 lung
# NCI-H522 lung = system: NCI-H522 lung
# NCI/ADR-RES ovarian = system: NCI/ADR-RES ovarian
# OVCAR-3 ovarian = system: OVCAR-3 ovarian
# OVCAR-4 ovarian = system: OVCAR-4 ovarian
# OVCAR-5 ovarian = system: OVCAR-5 ovarian
# OVCAR-8 ovarian = system: OVCAR-8 ovarian
# PC-3 prostate = system: PC-3 prostate
# RPMI-8226 leukemia = system: RPMI-8226 leukemia
# RXF 393 renal = system: RXF 393 renal
# SF-268 CNS = system: SF-268 CNS
# SF-539 CNS = system: SF-539 CNS
# SK-MEL-2 melanoma = system: SK-MEL-2 melanoma
# SK-MEL-28 melanoma = system: SK-MEL-28 melanoma
# SK-OV-3 ovarian = system: SK-OV-3 ovarian
# SN12C renal = system: SN12C renal
# SNB-19 CNS = system: SNB-19 CNS
# SNB-75 CNS = system: SNB-75 CNS
# SR leukemia = system: SR leukemia
# SW-620 colon = system: SW-620 colon
# T-47D breast = system: T-47D breast
# TK-10 renal = system: TK-10 renal
# U251 CNS = system: U251 CNS
# UACC-257 melanoma = system: UACC-257 melanoma
# UACC-62 melanoma = system: UACC-62 melanoma
# UO-31 renal = system: UO-31 renal
compound,measurement,setting,value
CC1=C2C(=C[C@@](C)(C=O)[C@@H]2O)C(=O)[C@](C)(O)C12CC2,GI50,786-0 renal,2400 nM
same,TGI,786-0 renal,10100 nM
same,GI50,A549 NSCLC,476 nM
same,TGI,A549 NSCLC,11900 nM
same,GI50,ACHN renal,1560 nM
same,TGI,ACHN renal,8200 nM
same,GI50,BT-549 breast,1590 nM
same,TGI,BT-549 breast,4730 nM
same,GI50,CAKI-1 renal,541 nM
same,TGI,CAKI-1 renal,22000 nM
same,GI50,CCRF-CEM leukemia,1740 nM
same,TGI,CCRF-CEM leukemia,> 100000 nM
same,GI50,COLO 205 colon,1120 nM
same,TGI,COLO 205 colon,4680 nM
same,GI50,DU-145 prostate,340 nM
same,TGI,DU-145 prostate,10100 nM
same,GI50,EKVX NSCLC,2800 nM
same,TGI,EKVX NSCLC,8860 nM
same,GI50,HCC-2998 colon,1380 nM
same,TGI,HCC-2998 colon,3480 nM
same,GI50,HCT-116 colon,569 nM
same,TGI,HCT-116 colon,> 100000 nM
same,GI50,HCT-15 colon,842 nM
same,TGI,HCT-15 colon,9100 nM
same,GI50,HL-60(TB) leukemia,1470 nM
same,TGI,HL-60(TB) leukemia,6970 nM
same,GI50,HOP-62 NSCLC,2530 nM
same,TGI,HOP-62 NSCLC,14100 nM
same,GI50,HOP-92 NSCLC,2390 nM
same,TGI,HOP-92 NSCLC,6680 nM
same,GI50,HS 578T breast,1990 nM
same,TGI,HS 578T breast,5360 nM
same,GI50,HT29 colon,1130 nM
same,TGI,HT29 colon,88000 nM
same,GI50,IGROV1 ovarian,789 nM
same,TGI,IGROV1 ovarian,5760 nM
same,GI50,K-562 leukemia,2910 nM
same,TGI,K-562 leukemia,> 100000 nM
same,GI50,KM12 colon,3090 nM
same,TGI,KM12 colon,22200 nM
same,GI50,LOX IMVI melanoma,1160 nM
same,TGI,LOX IMVI melanoma,4430 nM
same,GI50,M14 melanoma,1780 nM
same,TGI,M14 melanoma,5110 nM
same,GI50,MALME-3M melanoma,1610 nM
same,TGI,MALME-3M melanoma,3830 nM
same,GI50,MCF7 breast,381 nM
same,TGI,MCF7 breast,10500 nM
same,GI50,MDA-MB-231 breast,2490 nM
same,TGI,MDA-MB-231 breast,7550 nM
same,GI50,MDA-MB-435,2070 nM
same,TGI,MDA-MB-435,4720 nM
same,GI50,MOLT-4 leukemia,2180 nM
same,TGI,MOLT-4 leukemia,> 100000 nM
same,GI50,NCI-H226 lung,2070 nM
same,TGI,NCI-H226 lung,5090 nM
same,GI50,NCI-H23 lung,666 nM
same,TGI,NCI-H23 lung,2450 nM
same,GI50,NCI-H460 lung,260 nM
same,TGI,NCI-H460 lung,710 nM
same,GI50,NCI-H522 lung,1790 nM
same,TGI,NCI-H522 lung,4940 nM
same,GI50,NCI/ADR-RES ovarian,1560 nM
same,TGI,NCI/ADR-RES ovarian,5700 nM
same,GI50,OVCAR-3 ovarian,1350 nM
same,TGI,OVCAR-3 ovarian,5770 nM
same,GI50,OVCAR-4 ovarian,2040 nM
same,TGI,OVCAR-4 ovarian,7070 nM
same,GI50,OVCAR-5 ovarian,424 nM
same,TGI,OVCAR-5 ovarian,4440 nM
same,GI50,OVCAR-8 ovarian,2390 nM
same,TGI,OVCAR-8 ovarian,> 100000 nM
same,GI50,PC-3 prostate,1550 nM
same,TGI,PC-3 prostate,8260 nM
same,GI50,RPMI-8226 leukemia,7280 nM
same,TGI,RPMI-8226 leukemia,52200 nM
same,GI50,RXF 393 renal,277 nM
same,TGI,RXF 393 renal,799 nM
same,GI50,SF-268 CNS,2590 nM
same,TGI,SF-268 CNS,10300 nM
same,GI50,SF-539 CNS,1480 nM
same,TGI,SF-539 CNS,3330 nM
same,GI50,SK-MEL-2 melanoma,2080 nM
same,TGI,SK-MEL-2 melanoma,4580 nM
same,GI50,SK-MEL-28 melanoma,1960 nM
same,TGI,SK-MEL-28 melanoma,5030 nM
same,GI50,SK-OV-3 ovarian,2660 nM
same,TGI,SK-OV-3 ovarian,7790 nM
same,GI50,SN12C renal,2850 nM
same,TGI,SN12C renal,51500 nM
same,GI50,SNB-19 CNS,2500 nM
same,TGI,SNB-19 CNS,12500 nM
same,GI50,SNB-75 CNS,1580 nM
same,TGI,SNB-75 CNS,3950 nM
same,GI50,SR leukemia,2160 nM
same,TGI,SR leukemia,> 100000 nM
same,GI50,SW-620 colon,881 nM
same,TGI,SW-620 colon,> 100000 nM
same,GI50,T-47D breast,2390 nM
same,TGI,T-47D breast,8860 nM
same,GI50,TK-10 renal,2700 nM
same,TGI,TK-10 renal,8770 nM
same,GI50,U251 CNS,1050 nM
same,TGI,U251 CNS,> 100000 nM
same,GI50,UACC-257 melanoma,3150 nM
same,TGI,UACC-257 melanoma,15200 nM
same,GI50,UACC-62 melanoma,1520 nM
same,TGI,UACC-62 melanoma,3670 nM
same,GI50,UO-31 renal,1700 nM
same,TGI,UO-31 renal,9010 nM
